# In patent US8455443B2, “Methods of use of skin wound healing compositions” (University of Southern California, priority 2009, dated 2013):
# What was measured:
# HKC migration = assay: in vitro pro-motility (cell migration) activity of hsp90α and its fragments, FIG. 1; format: cell-based, human; conditions: for activity on cell migration: relative to full length hsp90α
# Method: FIG. 1 contains a list of amino acid sequences that were tested for in vitro efficacy as compared to a control medium. The amino acid sequences are identified in FIG. 1 as follows:
# Therefore, hsp90α promotes HKC migration mainly through its middle and the carboxyl domains, consistent with their surface location in hsp90α.
# However, as can also be seen in FIG. 1, not all of the full hsp90α protein or the entire middle domain and charged portion of hsp90α protein is necessary to promote wound healing. […] Thus, the unnecessary portions of hsp90α need not be included in a composition for wound healing, thereby allowing a composition to be more efficacious per weight of active wound healing agent. Moreover, instead of relying on complicated isolation and extraction methods to obtain the hsp90α protein or the middle domain plus charged portion of hsp90α protein, more inexpensive and conventional methods of synthesis may be employed to obtain the lower chain length polypeptide chains.
# [1] = tested on: 1 cm×1 cm full-thickness excision wound on the back of nude mice; assay: full-thickness excision skin wound healing in nude mice, topical treatment; format: in vivo; conditions: for wound sizes: n=10 per group
# Method: 100 μg F-3 fragments in 100 μl of 10% Carboxymethylcellulose cream and the cream alone was topically applied to the 1 cm×1 cm wound on the back of nude mice daily for 5 days, and wounds were analyzed every two days.
# The pharmaceutical 100 μl of 10% carboxymethylcellulose cream (Sterile) is mixed in and the 1 cm×1 cm wound on the back of a nude mouse is topically covered. Following this treatment, the wound is covered with a few antibiotics and bandi and the bandi are fixed by rolling the mouse with coban. The F-3 compound mixture is then added every day for up to five days and the wound is analyzed every two days.
# To prepare mice for topical treatment of F-3, 1.0-cm×1.0-cm full-thickness excision wounds were made by lifting the skin with forceps and removing full thickness skin with a pair of scissors on the mid-back of 8 to 10 week old mice. The wounds were topically covered by 100 μl 10% carboxymethylcellulose either without (as a control) or with 300 μg recombinant F-3 compound. The wound area was then covered with Band-Aid and Coban, a self-adherent wrap, to prevent desiccation. Only one dose of F-3 compounds was administered to the wound. To measure the wound area, standardized digital photographs were taken of the wounds at 4, 6, 8, 11, 13 and 15 days post-wounding and the open wound areas were determined with an image analyzer (AlphaEase FC version 4.1.0, Alpha Innotech Corporation). Percentage of wound area was defined by comparing areas of healing wounds to those of the original wounds. The Student T test was used for the statistical analysis. All animal studies were conducted using protocols approved by the University of Southern California Institutional Animal Use Committee.
# A 1.0-cm^2 (lcm×lcm) square full-thickness excision wound was made on the mid-back of 8 to 10 week old athymic nude mice and the pharmaceutical composition of F-3 was applied topically daily for 5 days (n=10 mice per group). (A) Representative day 4, 6, 8, 11, 13 and 15 wounds are shown. […] (B) Mean±SD wound size measurements at day 4, 6, 8, 11, 13 and 15 post-wounding (n=10 mice for each group). […]
Substance,activity on cell migration (HKC migration) [%],pro-motility activity (HKC migration; in comparison to the control medium),"closure of the wounds ([1]; 100 μg in 100 μl 10% carboxymethylcellulose cream, topical, daily for 5 days, day 4, 6, 8, 11, 13, 15, vs cream control, FIGS. 2A-2F)","wound sizes ([1]; F-3 vs 40 μg PDGF-BB (Regenerex) for 5 days, day 0, 5, 7, 10, 12, FIGS. 3A-3E)","wound sizes ([1]; athymic nude mice, topical daily for 5 days, day 4, 6, 8, 11, 13, 15, vs cream alone)"
"EEKEDKEEEKEKEEKESEDKPEIEDVGSDEEEEKKDGDKKKKKKIKEKYIDQEE (listed as Homo sapiens) [F-5, hsp90α fragment having 54 amino acid units from amino acid number 236 to 289]",~100,–,–,–,–
WT hsp90α: the full-length (WT) hsp90α protein,100,remarkable pro-motility activity,–,–,–
"F-3: fragment of hsp90α consisting of 115 amino acid units, from amino acid number 236 to 350",~100,–,significantly accelerated closure of the wounds,significantly reduced,significantly reduced
